Consider two compounds from patent US9517230B2, “Small molecule RNase inhibitors and methods of use” (UNIVERSITY OF ROCHESTER, priority 2011, dated 2016).

The structures appear in SMILES notation. Entries after “also recorded” stand apart in the source; their conditions may differ.

One series concerns the target T1, S. aureus RnpA (Staphylococcus aureus, UniProt P0A0H5).
T1 construct: hexahistidine-tag (pET-30 Ek/LIC leader) (N); made in house; host or cells: E. coli BL21 (DE3)
T1 sequence (P0A0H5 1-117): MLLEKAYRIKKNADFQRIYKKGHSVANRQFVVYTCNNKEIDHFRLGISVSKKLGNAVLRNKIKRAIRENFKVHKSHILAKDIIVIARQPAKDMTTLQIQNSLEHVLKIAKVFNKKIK
Nature of the series: RnpA-mediated RNA (spa mRNA) degradation inhibitory titration assay. It is filed as biochemical. As to conditions: for IC50: 1 pmol spa mRNA, 20 pmol RnpA, one hour at 37° C., agarose gel, read-out: apparent IC50. As to the method: Specifically, members of the ActiProbe-25K and Natural Product libraries (29,940 compounds total; TimTec Inc.; Newark, Del.) were screened for small molecule inhibitors of S. aureus RnpA mediated total bacterial RNA degradation. All reactions (50 μl) were performed in 96-well format and contained 20 pmol RnpA, 200 ng S. aureus total RNA, and ˜5 μM of each compound in 1× reaction buffer (2 mM NaCl, 2 mM MgCl2, 50 mM Tris-HCl, pH 6.0). Mixtures were incubated at 37° C. for 20 min at which time Quant-iT RiboGreen® (100 μl; Invitrogen) was added to quantify the amount of RNA substrate remaining. Percent enzyme inhibition was calculated as remaining substrate/starting substrate*100. For inhibitory titration assays, 1 pmol of spa mRNA was incubated with 20 pmol RnpA alone (positive control) or in the presence of one of four compounds for one hour at 37° C. […] Following this, 20 μl of each reaction mixture were subjected to electrophoresis in a 1.2% formaldehyde-containing agarose gel and visualized by ethidium bromide staining.

For another series, the system named is MRSA. Nature of the series: Antimicrobial susceptibility testing, broth microdilution (CLSI). It is filed as cell-based, Staphylococcus aureus. The following applies: 18 hr at 37° C. From the text:
In some examples, compounds can be further assayed using the Mueller Hinton (MH) broth antibacterial assay as specified by the Clinical and Laboratory Standards Institute MIC broth microdilution protocol (see Methods for Dilution Antimicrobial Susceptibility Tests for Bacteria That Grow Aerobically; Approved Standard, In The Clinical and Laboratory Standards Institute (CLSI, formerly NCCLS), 7th ed., January 2006, 26 (2), M7-A7; see also Performance Standards for Antimicrobial Susceptibility Testing; Eighteenth Informational Supplement, In The Clinical and Laboratory Standards Institute (CLSI, formerly NCCLS), January 2008, 28 (1), M100-S18).
Microtiter plates containing serial dilutions of the compounds 1000 (0, 4, 8, 16, 32, 64, and 128 μg/ml) were inoculated with 10^5 colony forming units (CFU)/ml and incubated for 18 hr at 37° C.
In general terms: In broth dilution the organism is exposed to a series of concentrations in liquid medium.

The subject of another series is HepG2 human hepatocytes. Nature of the series: HepG2 MTT cytotoxicity assay. It is filed as cell-based. As to conditions: 1×, 2×, 4× the MIC value for 48 hours. The procedure: It was then assessed whether RnpA-inhibitory agent concentrations corresponding to the effective bacterial MIC values (10-50 μg/ml) elicited human cell cytotoxicity. HepG2 human hepatocytes (10^5 cells) were seeded in individual wells of a microtitre plate and incubated for 16 hr at 37° C. with 5% carbon dioxide in Dulbecco's Modified Eagle Media supplemented with 10% fetal bovine serum. Cells were then challenged with Mitomycin C (5 or 10 μg/ml; positive control) or 1, 2, or 4 times (1×, 2×, 4×) the MIC value of the indicated RnpA inhibitory compound for 48 hours. Cell viability was measured spectrophotometrically (570 nm) following the addition and subsequent reduction of tetrazolium salt (MTT) within metabolically active cells, as per the manufacturer's recommendations (American Type Culture Collection; Manassas, Va.).
A general note: Tetrazolium assays rely on reduction of a dye to a coloured formazan, in cell work by metabolically active cells.

Turning to `CC(C)c1ccc(OCC(=O)NNC(=S)NC(=O)c2ccco2)cc1` [RNPA-2000], on S. aureus RnpA, the “inhibition of RnpA-mediated RNA degradation (in words)” value was “inhibit RnpA-mediated RNA degradation; also recorded: excellent RnpA-inhibitory activity” and the half-inhibitory concentration (IC50) is 15 to 20 µM. In addition, in the series with MRSA, the “antimicrobial activity against MRSA (in words)” value is “moderate antimicrobial activity; also recorded: good antistaphylococcal activity”. For the same compound, the “human cell cytotoxicity / cell survival (in words)” value in the series with HepG2 human hepatocytes is given as “do not cause human cytotoxicity”. Further, the “human cell cytotoxicity / cell survival (in words)” value with HepG2 human hepatocytes (listed as ST003531) is “did not affect human cell survival”.

For `O=C(O)CCN1C(=O)/C(=C\c2ccc(-c3ccc(Cl)cc3)o2)SC1=S` [RNPA-3000], on S. aureus RnpA, the “inhibition of RnpA-mediated RNA degradation (in words)” value is given as “inhibit RnpA-mediated RNA degradation; also recorded: excellent RnpA-inhibitory activity” and the IC50 fell in the range of 12.5 to 20 µM. In the series on MRSA, the “antimicrobial activity against MRSA (in words)” value is “moderate antimicrobial activity; also recorded: good antistaphylococcal activity”. Moreover, the “human cell cytotoxicity / cell survival (in words)” value in the series on HepG2 human hepatocytes was “do not cause human cytotoxicity”. Besides, the “human cell cytotoxicity / cell survival (in words)” value in the series on HepG2 human hepatocytes (listed as ST006630) is given as “did not affect human cell survival”.

What is called IC50 is the concentration that inhibits the measured activity by half.
